No end group written: not given here.

Experiment [1] deals with normal human mammary epithelial cells. Nature of the experiment: SU-ECM invasion assay, normal mammary epithelial cells. The note with it: SU-ECM, serum containing environment; Figure 12. The experiment is classed as cell-based. The protocol: Adult Strongylocentrotus purpuratus sea urchins were obtained from Pacific BioMarine, and their embryos were cultured to the early pluteus stage in artificial sea water at 15°C. SU-ECM were prepared from them by treatment with nonionic detergent and sterilized by dilution in the appropriate media.
[…] When appropriate, purified bovine plasma fibronectin (Sigma, St. Louis, Mo), purified 120 kDa chymotryptic fragment (Gibco BRL), PHSRN or PHSCN peptides (synthesized at the Biomedical Research Core Facilities of the University of Michigan), or GRGDSP or GRGESP peptides (Gibco BRL) were added to the resuspended cells prior to placement of the cells on SU-ECM. In each well of a plate used for an invasion assay, SU-ECM were placed in 0.5 ml of the appropriate medium, and 0.5ml of the resuspended cells dropped on their exterior surfaces. Invasion assays were incubated 1 to 16 hours prior to scoring. If some circumstances, invasion assays were fixed in phosphate-buffered saline (PBS) with 2% formaldehyde for 5 minutes at room temperature, then rinsed into PBS.
(§1) Invasion assays were coded and scored blindly by microscopic examination under phase contrast at 200- and 400-fold magnification. Each cell contacting an SU-ECM was scored for its position relative to the exterior or interior surfaces. A cell was judged to have invaded if it was located on an interior surface below the focal plane passing through the upper surface of the SU-ECM, but above the focal plane passing through its lower surface. The minimum viability of the cells in each assay was always ascertained at the time of assay by determining the fraction of spread, adherent cells on the bottom of each well scored.
An invasion frequency is defined as the fraction of cells in contact with basement membranes which were located in their interiors at the time of assay. […] Invasion frequencies were determined multiple times for each cell type assayed. For each type of cell assayed the mean and standard deviation of the invasion frequencies were calculated. […]

For another experiment, the system named is neonatal fibroblasts. Put plainly: SU-ECM invasion assay, neonatal fibroblasts. The experiment is classed as cell-based, human.
Text: In one example cells for the invasion assay are harvested by rinsing in Hanks' balanced salt solution, followed by brief treatment with 0.25% trypsin, 0.02% EDTA, and pelleting and resuspension in the appropriate medium with or without 5% FCS at a density of about 50,000 cells per ml. When appropriate, purified bovine plasma fibronectin (from Sigma, St. Louis, Mo), purified 120 kDa chymotryptic fragment (Gibco BRL) or PHSRN peptides (synthesized at the Biomedical Research Core Facilities of the University of Michigan) are added to the resuspended cells prior to placement of the cells on SU-ECM. In each well of a plate used for an invasion assay, SU-ECM were placed in 0.5 ml of the appropriate medium, and 0.5ml of the resuspended cells dropped on their exterior surfaces. Invasion assays were incubated 1 to 16 hours prior to assay. If some circumstances, invasion assays were fixed in phosphate-buffered saline (PBS) with 2% formaldehyde for 5 minutes at room temperature, then rinsed into PBS.
as §1, with “are” for “were”, “is” for “was”
An invasion frequency is defined as the fraction of cells in contact with basement membranes which are located in their interiors at the time of assay. Thus, an invasion frequency of 1 denotes invasion by 100% of the cells in contact with basement membranes. Invasion frequencies are determined multiple times for each cell type assayed. For each type of cell assayed the mean and standard deviation of the invasion frequencies were calculated.
In this example, the invasiveness of neonatal fibroblasts into an SU-ECM invasion substrate is considered. Experiments were performed under serum-free conditions, or in medium with 10% fetal calf serum (FCS). Neither serum-free medium nor medium containing serum supported fibroblast invasion. However, consistent with the induction of metalloproteinase gene transcription by the 120 kDa fragment of plasma fibronectin (pFn) containing the cell-binding domain, the 120 kDa fragment induced fibroblast invasion in the presence or in the absence of serum. […]

Experiment [2] concerns Normal neonatal keratinocytes. Put plainly: SU-ECM invasion assay, keratinocytes. Format: cell-based. The note with it: in the presence of serum, Figure 11. An excerpt: (§2) In one example cells for the invasion assay are harvested by rinsing in Hanks' balanced salt solution, followed by brief treatment with 0.25% trypsin, 0.02% EDTA, and pelleting and resuspension in the appropriate medium with or without 5% FCS at a density of about 50,000 cells per ml. When appropriate, purified bovine plasma fibronectin (from Sigma, St. Louis, Mo), purified 120 kDa chymotryptic fragment (Gibco BRL) or PHSRN peptides (synthesized at the Biomedical Research Core Facilities of the University of Michigan) are added to the resuspended cells prior to placement of the cells on SU-ECM. […]
(§3) Invasion assays are coded and scored blindly by microscopic examination under phase contrast at 200- and 400-fold magnification. Each cell contacting an SU-ECM is scored for its position relative to the exterior or interior surfaces. […] The minimum viability of the cells in each assay is always ascertained at the time of assay by determining the fraction of spread, adherent cells on the bottom of each well scored.
(§4) An invasion frequency is defined as the fraction of cells in contact with basement membranes which are located in their interiors at the time of assay. […] Invasion frequencies are determined multiple times for each cell type assayed. For each type of cell assayed the mean and standard deviation of the invasion frequencies were calculated. […]

In experiment [3] the test system is Mouse muscle satellite cells. Nature of the experiment: SU-ECM invasion assay, muscle satellite cells. The note with it: 1 microgram per ml, presence or absence of serum; Figure 13. Format: cell-based.
Text: as §2, §3, §4

As for PHSRN [PHSRN], the “induction of invasive behavior of human mammary epithelial cells” value in experiment [1] is given as “induces the invasive behaviors”. Moreover, the “induction of fibroblast invasion of SU-ECM, dose response” value with neonatal fibroblasts (10 to 3000 ng per ml, presence or absence of serum, log-linear, Figure 10) is “able to induce fibroblast invasion”. Moreover, the “induction of fibroblast invasion of SU-ECM” value with neonatal fibroblasts (in the presence (10% FCS) or absence of serum, molar concentration equivalent to plasma fibronectin in serum, Figure 9) is reported as “contained all the invasion-stimulatory activity”; with neonatal fibroblasts (serum-free SU-ECM), “induced”. In addition, the “maximal invasion percentages for keratinocytes” value in experiment [2] is on record as “about 20%”. Also, the “induction of SU-ECM invasion by muscle satellite cells” value in experiment [3] is recorded as “induced the invasion”.
